The subject of data set [1] is HepG2. Description: Cytotoxicity against human HepG2 cells assessed as intracellular ATP level after 24 hrs by luciferase reporter gene assay. Format: cell-based. Particulars: HepG2, 24 h.
Data set [2] concerns the target T1, Myoglobin (Homo sapiens, UniProt P02144).
T1 sequence (P02144 whole entry): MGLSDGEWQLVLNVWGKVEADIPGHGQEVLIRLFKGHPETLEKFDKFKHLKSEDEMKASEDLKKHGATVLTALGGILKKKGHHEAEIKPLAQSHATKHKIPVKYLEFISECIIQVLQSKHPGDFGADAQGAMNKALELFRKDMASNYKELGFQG
Description: Inhibition of myoglobin (unknown origin)-mediated arachidonic acid oxidation using [14C]AA as substrate after 3 hrs by GC/NICI/MS analysis.

Data set [3] deals with T2, Prostaglandin G/H synthase 1 (Ovis aries, UniProt P05979).
T2 sequence (P05979 whole entry): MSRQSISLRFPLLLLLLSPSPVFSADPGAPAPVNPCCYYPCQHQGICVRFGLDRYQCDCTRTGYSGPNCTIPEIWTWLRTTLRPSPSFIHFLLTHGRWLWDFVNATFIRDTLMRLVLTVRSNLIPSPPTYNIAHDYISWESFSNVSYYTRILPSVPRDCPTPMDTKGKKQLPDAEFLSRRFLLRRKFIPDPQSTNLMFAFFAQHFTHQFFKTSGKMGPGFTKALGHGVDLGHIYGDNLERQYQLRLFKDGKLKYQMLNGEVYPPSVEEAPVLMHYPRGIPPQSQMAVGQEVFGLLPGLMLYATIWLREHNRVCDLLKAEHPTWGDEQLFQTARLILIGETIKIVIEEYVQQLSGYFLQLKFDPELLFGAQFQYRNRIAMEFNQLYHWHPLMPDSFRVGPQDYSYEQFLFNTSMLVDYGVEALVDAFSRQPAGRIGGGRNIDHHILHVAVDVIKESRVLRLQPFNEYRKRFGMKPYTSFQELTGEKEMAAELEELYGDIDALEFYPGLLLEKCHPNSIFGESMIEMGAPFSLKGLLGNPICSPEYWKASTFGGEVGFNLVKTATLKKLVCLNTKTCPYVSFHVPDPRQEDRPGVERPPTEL
As to the kind of experiment: Inhibition of ovine COX1-mediated arachidonic acid oxidation using [14C]AA as substrate after 5 mins by GC/NICI/MS analysis.

A short description of data set [4]: Metabolic stability in rat liver microsomes assessed as compound remaining at 10 uM after 30 mins by LC-MS analysis. Particulars: human. Background: Liver microsomes are vesicles of endoplasmic reticulum, rich in cytochrome P450 enzymes.

As usually defined, the EC50 is the concentration at which the effect is half-maximal. By IC50 is commonly meant the concentration that inhibits the measured activity by half. A low value points to greater potency in that assay.

For `CC(=O)Nc1ccc(O)cc1` [ACETAMINOPHEN], the EC50 in data set [1] turned out to be 594 µM. The IC50 in data set [2] was 2.3 µM; in data set [3] it was 372 µM.
With `O=C1NCc2cc(O)cnc2N1`, in data set [1], the EC50 came to 4760 µM. Besides, the half-inhibitory concentration (IC50) in data set [3] amounted to 451 µM. In addition, the fraction remaining at 0.5 h, 10 µM in data set [4] was 108%.
In the same order, the values of `Cc1nc2c(c(C)c1O)COC(=O)N2` are over 5000 µM, 198 µM and 97%.
As to `Cc1nc2c(c(C)c1O)CNC(=O)N2`, the EC50 in data set [1] is 2960 µM. For the same molecule, in data set [3], the IC50 is over 1000 µM. Besides, the share remaining at 0.5 h, 10 µM in data set [4] was determined as 87%.

Source of the values: ChEMBL document CHEMBL2406914 (ACS Med Chem Lett, 2013).
